Source: patent US20260306525A1, “COMBINATION THERAPY GLUCOCORTICOIDS AND GINSENOSIDE” (FYTAGORAS B.V., priority 2023, published 2026)

Experiments:
zebrafish larvae = experiment: larval body length; conditions: for larval length: Example 2, 5 dpf; for larval length at 5 dpf: 0-5 dpf, 10 μM beclomethasone, 50 μM Rg1 or combination
Procedure: In experiments in which the length of regenerated tail fin tissue after wounding, or the larval body length, was used as a readout, chemical treatments were started at 2 hours post-fertilization (hpf) and continued until 5 dpf, as indicated (15 larvae per treatment group). During this period, solutions were refreshed daily. For the regeneration experiments, tail fins were amputated at 2 dpf. At 5 dpf, larvae were fixed overnight in 4% PFA at 4° C. For determination of the larval length and the regeneration of the tail fins, larvae were imaged using a LeicaMZ16FA fluorescence stereomicroscope supported by LAS 3.7 software. The length of the entire larva or the newly grown tissue was measured using ImageJ software. The newly grown tissue can be visually distinguished from the old tissue, enabling precise measurement of its length.

gr = experiment: Gr transactivation activity in Tg(9xGCRE-HSV.UI23:EGFP)ia20 reporter larvae; assay type: in vivo, zebrafish (Danio rerio); conditions: for GFP fluorescence intensity (Gr transactivation): Example 2, 24 h, 3 dpf
Procedure: (§1) To investigate the Gr transactivation activity in zebrafish larvae, the Tg(9xGCRE-HSV.UI23:EGFP)^ia20 reporter line was used, which expresses enhanced green fluorescent protein (EGFP) under the control of a promoter containing an array of nine GREs. […] The integrated intensity of the EGFP signal in the larvae was determined using ImageJ software.
as §1, with “Tg(9xGCRE-HSV.UI23:EGFP^ia20)” for “Tg(9xGCRE-HSV.UI23:EGFP)^ia20”

neutrophils = experiment: zebrafish tail fin wounding assay, neutrophil migration to wounded site; assay type: in vivo, zebrafish (Danio rerio); conditions: for migration of neutrophils upon tail fin wounding: Example 2, PPT 50 μM, F1, Rh1, Rg1 100 μM, Bec positive control, 3 dpf; for reduction in neutrophil migration in presence of Gba2 inhibitor MZ31: MZ31 (10 μM) co-treatment; for migration of neutrophils towards the wounded site: 4 h after wounding
Procedure: Zebrafish (Danio rerio) were maintained and handled according to the guidelines from the Zebrafish Model Organism Database (http://zfin.org) and in compliance with the directives of the local animal welfare committee of Leiden University. Zebrafish were exposed to a 14 h light and 10 h dark cycle to maintain circadian rhythmicity. Fertilization was performed by natural spawning at the beginning of the light period. […] The following zebrafish lines were used in this study: the double transgenic line Tg(mpx:GFP^i114/mpeg1:mCherry^umsF001), in which neutrophils and macrophages are fluorescently labeled (green and red, respectively), and the Tg(9xGCRE-HSV.UI23:EGFP)^ia20 reporter line, in which the gene encoding enhanced green fluorescent protein (EGFP) is driven by a GRE-containing promoter.
For the tail fin wounding experiments, 20 larvae at 2 or 3 days post-fertilization (dpf) were utilized for each experimental group. For wounding, larvae were anesthetized in egg water containing 0.02% buffered aminobenzoic acid ethyl ester (tricaine; Sigma-Aldrich). Larvae were placed on Petri dishes coated with 2% agarose under a Leica M165C stereomicroscope (Leica Microsystems, Wetzlar, Germany), and the tails were partly amputated using a 1-mm sapphire blade (World Precision Instruments, Sarasota, FL, USA). For quantification of leukocyte migration, larvae were fixed overnight in 4% paraformaldehyde (PFA) at 4° C. The next day, fixed larvae were washed with Phosphate Buffered Saline (PBS) containing 0.1% Tween 20, and stored at 4° C. until imaging.
The macrophages were detected based on their red (mCherry) fluorescence, and neutrophils based on their green (EGFP) fluorescence. To quantify the number of macrophages and neutrophils recruited to the wounded area, the cells in a defined area of the tail were determined by blinded manual counting.
Zebrafish (Danio rerio) were maintained and handled according to the guidelines from the Zebrafish Model Organism Database (http://zfin.org) and in compliance with the directives of the local animal welfare committee of Leiden University. Zebrafish were exposed to a 14 h light and 10 h dark cycle to maintain circadian rhythmicity. Fertilization was performed by natural spawning at the beginning of the light period. […] The following zebrafish lines were used in this study: AB/TL wild type, the transgenic lines Tg(mpx:GFP^i114/mpeg1:mCherry^umsF001)[14, 15], and Tg(9xGCRE-HSV.UI23:EGFPia^20)[16], and the mutant lines grs357[20].
For the tail fin wounding experiments, 2- or 3-days post-fertilization (dpf) larvae were anesthetized in egg water containing 0.02% buffered aminobenzoic acid ethyl ester (tricaine; Sigma-Aldrich). Larvae were placed in Petri dishes coated with 2% agarose under a Leica M165C stereomicroscope (Leica Microsystems, Wetzlar, Germany), and the tails were partly amputated using a 1-mm sapphire blade (World Precision Instruments, Sarasota, FL, USA).
In experiments in which the leukocyte migration was used as a readout, larvae were subjected to treatment with chemicals as indicated, starting at 2 h before the amputation (pretreatment), and treatment was continued for 4 h after the tail fin amputation (20 larvae per group, unless indicated otherwise). In some experiments, a 24 h treatment with MZ31 (10 μM) was started at 2 dpf, and these treatments were continued during the pretreatment and treatment with the other chemicals. At 4 h after amputation, the larvae were fixed in 4% paraformaldehyde (PFA) overnight at 4° C. The next day, fixed larvae were washed with Phosphate Buffered Saline (PBS) containing 0.1% Tween 20 and stored at 4° C. until imaging. […] The macrophages were detected based on red (mCherry) fluorescence and neutrophils on their green (EGFP) fluorescence. To quantify the number of macrophages and neutrophils recruited to the wounded area, the cells in a defined area of the tail were determined by blinded manual counting. […]

In the case of `CC(C)=CCC[C@](C)(O)[C@H]1CC[C@]2(C)[C@@H]1[C@H](O)C[C@@H]1[C@@]3(C)CC[C@H](O)C(C)(C)[C@@H]3[C@@H](O[C@@H]3O[C@H](CO)[C@@H](O)[C@H](O)[C@H]3O)C[C@]12C` [Rh1], the larval length (zebrafish larvae) is reported as “did not show any side effects”, the “GFP fluorescence intensity (Gr transactivation)” value (from here on “GFP fluorescence intensity”) (gr) is reported as “none of the ginsenosides PPT, F1, Rh1, and Rg1 altered the fluorescence intensity” and the “migration of neutrophils upon tail fin wounding” value (neutrophils) is reported as “inhibited the migration of neutrophils”. For the same compound, the “reduction in neutrophil migration in presence of Gba2 inhibitor MZ31” value (“reduction … of Gba2 inhibitor MZ31” for short) (neutrophils) was “did not affect the reduction in neutrophil migration”.
With `CC(C)=CCC[C@](C)(O[C@@H]1O[C@H](CO)[C@@H](O)[C@H](O)[C@H]1O)[C@H]1CC[C@]2(C)[C@@H]1[C@H](O)C[C@@H]1[C@@]3(C)CC[C@H](O)C(C)(C)[C@@H]3[C@@H](O)C[C@]12C` [F1] the larval length (zebrafish larvae) was “did not show any side effects”, the “GFP fluorescence intensity” value (gr) was “none of the ginsenosides PPT, F1, Rh1, and Rg1 altered the fluorescence intensity” and the “migration of neutrophils upon tail fin wounding” value (neutrophils) was “inhibited the migration of neutrophils”. For the same compound, the “reduction … of Gba2 inhibitor MZ31” value (neutrophils) was “did not affect the reduction in neutrophil migration”.
In the case of `CC(C)=CCC[C@](C)(O[C@@H]1O[C@H](CO)[C@@H](O)[C@H](O)[C@H]1O)[C@H]1CC[C@]2(C)[C@@H]1[C@H](O)C[C@@H]1[C@@]3(C)CC[C@H](O)C(C)(C)[C@@H]3[C@@H](O[C@@H]3O[C@H](CO)[C@@H](O)[C@H](O)[C@H]3O)C[C@]12C` [Rg1, (3β,6α, 12β)-3,12-Dihydroxydammar-24-ene-6,20-diyl bis-β-D-glucopyranoside], the “larval length at 5 dpf” value (zebrafish larvae) is reported as “did not affect the larval length”, the larval length (zebrafish larvae) is reported as “did not show any side effects” and the “relative EGFP intensity (Gr transactivation)” value (gr; 24 h from 2 dpf, 10 μM GC, 50 μM Rg1 or combination) is reported as “did not affect the EGFP signal”. For the same compound, the “GFP fluorescence intensity” value (gr) was “none of the ginsenosides PPT, F1, Rh1, and Rg1 altered the fluorescence intensity”, the “migration of neutrophils upon tail fin wounding” value (neutrophils) was “inhibited the migration of neutrophils” and the “reduction … of Gba2 inhibitor MZ31” value (neutrophils) was “this inhibitor abolished the effect of the polyglycosylated ginsenoside Rg1”. For the same compound, the “migration of neutrophils towards the wounded site” value (neutrophils; Rg1 40 μM and lower) was “did not alter the neutrophil migration”.
In the case of `C[C@H]1C[C@H]2[C@@H]3CCC4=CC(=O)C=C[C@]4(C)[C@@]3(Cl)[C@@H](O)C[C@]2(C)[C@@]1(O)C(=O)CO` [beclomethasone, reference compound], the “larval length at 5 dpf” value (zebrafish larvae) is reported as “significantly decreased”, the larval length (zebrafish larvae) is reported as “decrease in larval length” and the “GFP fluorescence intensity” value (gr) is reported as “significant increase in the GFP signal throughout the body of the larvae”. For the same compound, the “migration of neutrophils upon tail fin wounding” value (neutrophils) was “inhibited the migration of neutrophils”, the “migration of neutrophils towards the wounded site” value (neutrophils; beclomethasone 20 μM and 40 μM) was “did significantly reduce the neutrophil migration” and the “migration of neutrophils towards the wounded site” value (neutrophils; beclomethasone lower than 10 μM) was “did not affect the migration of neutrophils towards the wounded site”.
For `CC(C)=CCC[C@](C)(O)[C@H]1CC[C@]2(C)[C@@H]1[C@H](O)C[C@@H]1[C@@]3(C)CC[C@H](O)C(C)(C)[C@@H]3[C@@H](O)C[C@]12C` [PPT, Protopanaxatriol], the larval length (zebrafish larvae) was “minor effect on larval length”, the “GFP fluorescence intensity” value (gr) was “none of the ginsenosides PPT, F1, Rh1, and Rg1 altered the fluorescence intensity” and the “migration of neutrophils upon tail fin wounding” value (neutrophils) was “inhibited the migration of neutrophils”. For the same compound, the “reduction … of Gba2 inhibitor MZ31” value (neutrophils) was “did not affect the reduction in neutrophil migration”.
